Reference: patent US20230416228A1 (Forkhead Biotherapeutics, Inc., priority 2020, published 2023)

Each molecule was assayed against T1, human FOXO1 (constitutively active form Thr24Ala, Ser256Ala, Ser319Ala) (Homo sapiens, UniProt Q12778, S256A/S319A/T24A) (assay: FOXO1 inhibitor activity assay: cell-based transcriptional (luciferase) reporter assay in HEK293 cells). Conditions: HEK293 cells transfected with insulin response element firefly luciferase reporter, FOXO1 and Renilla luciferase; 10-point dose response 50 μM to 2.5 nM; 24 hours.
T1 construct: expressed in transfected cells; host or cells: HEK293 cells transfected with pcDNA3.1 plasmid
T1 sequence (Q12778 whole entry T24A/S256A/S319A): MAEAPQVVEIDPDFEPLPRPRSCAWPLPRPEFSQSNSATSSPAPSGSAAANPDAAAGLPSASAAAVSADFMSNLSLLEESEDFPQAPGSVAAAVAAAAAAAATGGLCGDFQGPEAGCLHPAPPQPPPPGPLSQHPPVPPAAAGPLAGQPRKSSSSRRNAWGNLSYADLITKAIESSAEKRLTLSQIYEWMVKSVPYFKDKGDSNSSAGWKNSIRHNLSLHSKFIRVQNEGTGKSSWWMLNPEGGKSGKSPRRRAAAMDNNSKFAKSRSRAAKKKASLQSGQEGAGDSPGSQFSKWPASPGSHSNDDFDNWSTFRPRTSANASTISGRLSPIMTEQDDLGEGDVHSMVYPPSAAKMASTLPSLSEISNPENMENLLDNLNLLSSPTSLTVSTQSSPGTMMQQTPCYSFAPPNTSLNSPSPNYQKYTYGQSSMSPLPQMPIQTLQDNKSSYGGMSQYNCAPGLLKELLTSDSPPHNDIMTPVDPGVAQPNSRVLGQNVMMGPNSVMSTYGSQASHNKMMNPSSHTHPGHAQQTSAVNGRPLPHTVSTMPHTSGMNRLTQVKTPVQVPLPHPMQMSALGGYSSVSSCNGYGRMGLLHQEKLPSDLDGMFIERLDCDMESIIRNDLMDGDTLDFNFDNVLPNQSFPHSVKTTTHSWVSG
Method in brief: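 IC50 and maximal inhibition were fitted by 4-parameter logistic regression on normalized firefly/Renilla luciferase ratios. The 0% reference used RFP in place of FOXO1, and the 100% reference was DMSO-only with all plasmids.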
Molecule `CN1CCN(c2ccc(C(=O)Nc3cc(-c4nc5ccccc5[nH]4)n(CCO)n3)cn2)CC1` [Compound A-200, N-[5-(1H-benzimidazol-2-yl)-1-(2-hydroxyethyl)pyrazol-3-yl]-6-(4-methyl-piperazin-1-yl)pyridine-3-carboxamide] has an IC50 of 300 to 1000 nM.
With `Cn1nc(NC(=O)c2ccc(N3CCOC(CO)C3)nc2)cc1-c1nc2ccccc2[nH]1` (centres unmarked) [Compound A-224, N-[5-(1H-benzimidazol-2-yl)-1-methyl-pyrazol-3-yl]-6-[2-(hydroxy-methyl)morpholin-4-yl]pyridine-3-carboxamide] the IC50 was 100 to 300 nM.
With `COc1ccc(C(=O)Nc2cc(-c3nc4cc(N5CCOCC5)ccc4[nH]3)[nH]n2)cc1Cl` [Compound A-265, 3-chloro-4-methoxy-N-[15-(5-morpholino-1H-benzimidazol-2-yl)-1H-pyrazol-3-yl]benzamide] the IC50 was less than 100 nM.
In the case of `O=C(NCc1ccccc1)Nc1cc(-c2nc3ccccc3[nH]2)[nH]n1` [Compound A-138, 1-[5-(1H-benzimidazol-2-yl)-1H-pyrazol-3-yl]-3-benzyl-urea], the IC50 is reported as greater than 1000 nM.
`Cn1nc(NC(=O)c2ccc(N3CCC(CO)CC3)nc2)cc1-c1nc2cccc(F)c2[nH]1` [Compound A-136, N-[5-(4-fluoro-1H-benzimidazol-2-yl)-1-methyl-pyrazol-3-yl]-6-[4-(hydroxymethyl)-1-piperidyl]pyridine-3-carboxamide] gave an IC50 of 100 to 300 nM.
Work on `Cn1nc(NC(=O)c2ccc(OC3COC3)c(Cl)c2)cc1-c1nc2ccccc2[nH]1` [Compound A-252, N-[5-(1H-benzimidazol-2-yl)-1-methyl-pyrazol-3-yl]-3-chloro-4-(oxetan-3-yloxy)benzamide] yielded an IC50 of less than 100 nM.
Work on `O=C(Nc1cc(-c2nc3ccccc3[nH]2)[nH]n1)c1ccc(N2CC[C@H](O)C2)nc1` [Compound A-54, N-[5-(1H-benzimidazol-2-yl)-1H-pyrazol-3-yl]-6-[(3S)-3-hydroxy-pyrrolidin-1-yl]pyridine-3-carboxamide] yielded an IC50 of 300 to 1000 nM.
`COCCCOc1ccc(C(=O)Nc2cc(-c3nc4ccccc4[nH]3)[nH]n2)cc1Cl` [Compound A-53, N-[5-(1H-benzimidazol-2-yl)-1H-pyrazol-3-yl]-3-chloro-4-(3-methoxy-propoxy)benzamide] was tested, and the IC50 was less than 100 nM.
`CCOC(=O)COc1ccc(C(=O)Nc2cc(-c3nc4ccccc4[nH]3)[nH]n2)cn1` [Compound A-70, ethyl 2-[[5-[[5-(1H-benzimidazol-2-yl)-1H-pyrazol-3-yl]carbamoyl]-2-pyridyl]oxy]acetate] was tested, and the IC50 was greater than 1000 nM.
`CN1CCN(c2ccc(C(=O)Nc3cc(-c4nc5ccccc5[nH]4)[nH]n3)cc2)CC1=O` [Compound A-242, N-[5-(1H-benzimidazol-2-yl)-1H-pyrazol-3-yl]-4-(4-methyl-3-oxo-piperazin-1-yl)benzamide] showed an IC50 of 100 to 300 nM.
Work on `Cn1nc(NC(=O)c2ccc(N3CC4(CC(O)C4)C3)nc2)cc1-c1nc2ccccc2[nH]1` [Compound A-274, N-[5-(1H-benzimidazol-2-yl)-1-methyl-pyrazol-3-yl]-6-(6-hydroxy-2-azaspiro[3.3]heptan-2-yl)pyridine-3-carboxamide] yielded an IC50 of 100 to 300 nM.
`COCCn1nc(NC(=O)c2ccc(N3CCN(C)CC3)nc2)cc1-c1nc2ccccc2[nH]1` [Compound A-182, N-[5-(1H-benzimidazol-2-yl)-1-(2-methoxyethyl)pyrazol-3-yl]-6-(4-methyl-piperazin-1-yl)pyridine-3-carboxamide] was tested, and the IC50 was 300 to 1000 nM.
Work on `COc1cc(F)c2[nH]c(-c3cc(NC(=O)c4ccc(N5CC(OC)C5)nc4)n[nH]3)nc2c1` [Compound A-188, N-[5-(7-fluoro-5-methoxy-1H-benzimidazol-2-yl)-1H-pyrazol-3-yl]-6-(3-methoxyazetidin-1-yl)pyridine-3-carboxamide] yielded an IC50 greater than 1000 nM.
`O=C(O)COc1ccc(C(=O)Nc2cc(-c3nc4ccccc4[nH]3)[nH]n2)cc1Cl` [Compound A-72, 2-[4-[[5-(1H-benzimidazol-2-yl)-1H-pyrazol-3-yl]carbamoyl]-2-chloro-phenoxy]acetic acid] was tested, and the IC50 was greater than 1000 nM.
In the case of `Cn1nc(NC(=O)c2ccc(N3CCOCC3CO)nc2)cc1-c1nc2ccccc2[nH]1` (centres unmarked) [Compound A-238, N-[5-(1H-benzimidazol-2-yl)-1-methyl-pyrazol-3-yl]-6-[3-(hydroxymethyl)morpholin-4-yl]pyridine-3-carboxamide], the IC50 is reported as 100 to 300 nM.
Work on `Cn1nc(NC(=O)c2ccc(N3CCC[C@H]3C(=O)O)nc2)cc1-c1nc2cc(F)ccc2[nH]1` [Compound A-151, (2S)-1-[5-[[5-(5-fluoro-1H-benzimidazol-2-yl)-1-methyl-pyrazol-3-yl]carbamoyl]-2-pyridyl]pyrrolidine-2-carboxylic acid] yielded an IC50 greater than 1000 nM.
Work on `O=C(Nc1cc(-c2nc3ccccc3[nH]2)[nH]n1)c1ccc(N2CC[C@@H](O)C2)cc1` [Compound A-40, N-[5-(1H-benzimidazol-2-yl)-1H-pyrazol-3-yl]-4-[(3R)-3-hydroxypyrrolidin-1-yl]benzamide] yielded an IC50 of less than 100 nM.
With `Cn1nc(NC(=O)c2ccc(N3CCN(C(=O)COCCO)CC3)nc2)cc1-c1nc2ccccc2[nH]1` [Compound A-287, N-[5-(1H-benzimidazol-2-yl)-1-methyl-pyrazol-3-yl]-6-[4-[2-(2-hydroxyethoxy)acetyl]piperazin-1-yl]pyridine-3-carboxamide] the IC50 was 300 to 1000 nM.
For `COCCN1CCN(c2ccc(C(=O)Nc3cc(-c4nc5cccc(F)c5[nH]4)n(C)n3)cn2)CC1` [Compound A-154], the IC50 was 100 to 300 nM.
With `COc1ccc2[nH]c(-c3cc(NC(=O)c4ccc(N5CCOCC5)nc4)n[nH]3)nc2c1` [Compound A-111, N-[5-(5-methoxy-1H-benzimidazol-2-yl)-1H-pyrazol-3-yl]-6-morpholino-pyridine-3-carboxamide] the IC50 was greater than 1000 nM.
In the case of `COC1CN(c2ccc(C(=O)Nc3cc(-c4nc5ccccc5[nH]4)n(C)n3)cn2)C1` [Compound A-97, N-[5-(1H-benzimidazol-2-yl)-1-methyl-pyrazol-3-yl]-6-(3-methoxyazetidin-1-yl)pyridine-3-carboxamide], the IC50 is reported as 100 to 300 nM.
Work on `O=C(Nc1cc(-c2nc3ccccc3[nH]2)[nH]n1)c1ccc(N2CCC(O)CC2)nc1` [Compound A-42, N-[5-(1H-benzimidazol-2-yl)-1H-pyrazol-3-yl]-6-(4-hydroxy-1-piperidyl)pyridine-3-carboxamide] yielded an IC50 of 100 to 300 nM.
Molecule `CN1CCN(c2ncc(C(=O)Nc3cc(-c4nc5ccccc5[nH]4)[nH]n3)cn2)CC1` [Compound A-180, N-[5-(1H-benzimidazol-2-yl)-1H-pyrazol-3-yl]-2-(4-methylpiperazin-1-yl)pyrimidine-5-carboxamide] has an IC50 of 100 to 300 nM.
In the case of `Cn1nc(NC(=O)c2ccc(N3CCN(CC(C)(C)O)CC3)cc2)cc1-c1nc2ccccc2[nH]1` [Compound A-259, N-[5-(1H-benzimidazol-2-yl)-1-methyl-pyrazol-3-yl]-4-[4-(2-hydroxy-2-methyl-propyl)piperazin-1-yl]benzamide], the IC50 is reported as less than 100 nM.
`CN1CCN(c2ccc(C(=O)Nc3cc(-c4nc5ccccc5[nH]4)n(C)n3)cn2)CC1` [Compound A-209, N-[5-(1H-benzimidazol-2-yl)-1-methyl-pyrazol-3-yl]-6-(4-methyl-piperazin-1-yl)pyridine-3-carboxamide] was tested, and the IC50 was less than 100 nM.
Work on `O=C1CN(c2ccc(C(=O)Nc3cc(-c4nc5ccccc5[nH]4)[nH]n3)cn2)CCN1` [Compound A-69, N-[5-(1H-benzimidazol-2-yl)-1H-pyrazol-3-yl]-6-(3-oxopiperazin-1-yl)pyridine-3-carboxamide] yielded an IC50 of 300 to 1000 nM.
